Several values for one entry are separate records, joined by “and”; a condition that tells them apart may be missing. Equal entries are not always repeated. Structures can show the parent of a compound that is named as a salt. Where two headings read alike, the source gives them in different places. One block for each compound: values may come before it.
How the values were obtained:
ovarian cancer [1] = conditions: intraperitoneal cisplatin regimen, versus 41 months, p=0.02; cited from earlier work
[2] = cited from earlier work
[3] = system: OVCAR3-RFP human ovarian cancer cells; test: sulforhodamine B (SRB) assay, dosage curves and IC50; assay type: cell-based; conditions: 72 h treatment; for IC50: Homo sapiens, 72 h
Experimental: Example 1. Determination of paclitaxel […] in TSD-001-treated human ovarian cancer cells. A sulforhodamine B (SRB) assay-based approach was employed to determine the inhibitory concentration (IC)50 of paclitaxel against OVCAR3-RFP human ovarian cancer cells (Anticancer Inc.) treated with the TSD-001 paclitaxel liposomal formulation (Paclitaxel:DMPC:DMPG=1:1.43:0.567). For use in the assay, lyophilized TSD-001 was reconstituted in sterile injectable-grade water to a concentration of 6 mg/mL and subsequently serially diluted in RPMI cell culture medium (RPMI-1640 with L-glutamine, Corning). Three separate dosage curve assays were performed. In two of the assays, the serial dilutions of TSD-001 ranged from 0.05 μg/mL to 0.391 ng/mL, and in the third assay, the serial dilutions of TSD-001 ranged from 0.0128 μg/mL to 2.147 ng/mL.
Serial dilutions of the Abraxane® paclitaxel formulation (nanoparticle albuminbound paclitaxel) and doxorubicin HCl were also prepared to perform comparative dosage curve assays in OVCAR3-RFP cells. For these assays, lyophilized Abraxane® was dissolved in RPMI medium to a concentration of 1 mg/mL, and doxorubicin HCl was dissolved in a small amount of DMSO, and the diluted in RPMI medium to a concentration of 1 mg/mL. Three separate dosage curve assays were performed for Abraxane®. In one assay, the serial dilutions of Abraxane® ranged from 0.04 μg/mL to 0.078 ng/mL. In the second assay, the serial dilutions of Abraxane® ranged from 0.04 μg/mL to 8.39 ng/mL and in the third assay, the serial dilutions of Abraxane® ranged from 0.032 μg/mL to 8.39 ng/mL. […]
OVCAR3-RFP cells were seeded onto 96-well clear flat-bottom polystyrene tissue culture plates (Corning) at a density of approximately 5×10^3 cells/well in 200 μl of RPMI. […] Protein-bound SRB was detected by adding 200 μl 10 mM Tris base solution (pH 10.5) to each well, followed by placing the plate(s) on a byratory shaker for 5 minutes to allow the Tris solution to solubilize SRB. The plates were read using a microplate reader at an absorbance of 510 nm. […]

ovarian cancer [4] = conditions: cited from earlier work

SMILES: N.N.[Cl][Pt][Cl] [cisplatin, Cis-diamminedichloroplatinum(10)]
overall survival median (ovarian cancer [1]): 49 months
peritoneal cavity exposure to greater concentrations than possible with systemic therapy delivery ([2]; in vivo, ip): 10-20 fold

IC50 ([3]; Table 1, combined data, read-out: Mean IC50 (μg/mL) against OVCAR3-RFP cells (n ≥ 5)): 0.191 ± 0.0835 µg/mL
IC50 ([3]; single dosage curve assay, n=3 or 4 wells/concentration, read-out: IC50 at 72 h.): 0.17 µg/mL
IC50 at 72 h. ([3]; single dosage curve assay, n=3 or 4 wells/concentration, HCl): 0.1322 µg/mL and 0.166 µg/mL
SMILES: COc1cccc2c1C(=O)c1c(O)c3c(c(O)c1C2=O)C[C@@](O)(C(=O)CO)C[C@@H]3O[C@H]1C[C@H](N)[C@H](O)[C@H](C)O1 [doxorubicin HCl]

SMILES: CC(=O)O[C@H]1C(=O)[C@@]2(C)[C@H]([C@H](OC(=O)c3ccccc3)[C@]3(O)C[C@H](OC(=O)[C@H](O)[C@@H](NC(=O)c4ccccc4)c4ccccc4)C(C)=C1C3(C)C)[C@]1(OC(C)=O)CO[C@@H]1C[C@@H]2O [paclitaxel]
peritoneal cavity exposure to greater concentrations than possible with systemic therapy delivery ([2]; intraperitoneal versus systemic delivery): greater than 1000 fold
surgical complete response (ovarian cancer [4]; intraperitoneal 60 mg/m^2 per week for 16 weeks, microscopic residual patients): 61%
complete response (ovarian cancer [4]; intraperitoneal 60 mg/m^2 per week for 16 weeks, women with macroscopic residual cancer): one of the 31
dose-limiting toxicity (ovarian cancer [4]; intraperitoneal use, Phase 1 study): abdominal pain

From patent US20220000777A1, “LIPOSOMAL ENHANCED INTRA-PERITONEAL CHEMOTHERAPY” (TESORX PHARMA, LLC, priority 2018, published 2022)
